Measured values published in US6365598B1, “Pyrroloquinolines for treatment of obesity” (Vernalis Research Limited, priority 1998, dated 2002).
Structures can show the parent of a compound that is named as a salt.

Legend:
human 5-HT2B receptors = biological target: T1, human 5-HT2B receptors (Homo sapiens, UniProt P41595); assay: Binding to 5-HT2B receptor, [3H]-5-HT, CHO cell line; conditions: read-out: Ki (2B)
T1 construct: expressed in transfected cells; host or cells: CHO cell line
Protocol: (§1) 1. Binding to Serotonin Receptors
(§2) The binding of compounds of formula (I) to serotonin receptors was determined in vitro by standard methods. The preparations were investigated in accordance with the assays given hereinafter.
Method (b): For the binding to the 5-HT2B receptor the 5-HT2B receptors were radiolabeled with [^3H]-5-HT. The affinity of the compounds for human 5-HT2B receptors in a CHO cell line was determined according to the procedure of K. Schmuck, C. Ullmer, P. Engels and H. Lubbert, FEBS Lett., 1994, 342, 85-90.

5-HT2c receptors [1] = biological target: T2, 5-HT2c receptors (Homo sapiens, UniProt P28335); assay: Binding to 5-HT2C receptor, [3H]-5-HT, CHO cell line; set-up: expressed in transfected cells; host or cells: CHO cell line; conditions: read-out: Ki (2C)
T2 sequence (P28335 33-458): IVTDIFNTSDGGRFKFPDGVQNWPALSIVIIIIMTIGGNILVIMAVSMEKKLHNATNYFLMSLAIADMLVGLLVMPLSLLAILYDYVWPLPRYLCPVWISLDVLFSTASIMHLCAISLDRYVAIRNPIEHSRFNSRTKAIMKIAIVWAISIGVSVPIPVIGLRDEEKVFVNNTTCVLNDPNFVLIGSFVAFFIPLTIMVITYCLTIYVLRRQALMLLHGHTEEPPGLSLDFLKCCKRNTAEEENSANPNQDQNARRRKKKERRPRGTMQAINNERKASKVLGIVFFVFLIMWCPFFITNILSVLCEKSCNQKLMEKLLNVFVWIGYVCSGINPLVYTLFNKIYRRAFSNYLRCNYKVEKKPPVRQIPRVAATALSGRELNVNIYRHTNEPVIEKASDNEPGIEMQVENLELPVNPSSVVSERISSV
Protocol: as §1, §2
Method (a): For the binding to the 5-HT2c, receptor the 5-HT2c receptors were radiolabeled with [^3H]-5-HT. The affinity of the compounds for 5-HT2c receptors in a CHO cell line was determined according to the procedure of D. Hoyer, G. Engel and H. O. Kalkman, European J. Pharmacol., 1985, 118,13-23.

5-HT2A receptors [2] = biological target: T3, 5-HT2A receptors (Homo sapiens, UniProt P28223); assay: Binding to 5-HT2A receptor, [125I]-DOI, CHO cell line; set-up: expressed in transfected cells; host or cells: CHO cell line; conditions: read-out: Ki (2A)
Protocol: as §1, §2
Method (c): For the binding to the 5-HT2A receptor the 5-HT2A receptors were radiolabeled with [^125I]-DOI. The affinity of the compounds for 5-HT2A receptors in a CHO cell line was determined according to the procedure of D. J. McKenna and S. J. Peroutka, J. Neurosci., 1989, 9, 3482-90.

5-HT2A receptors [3] = biological target: T3, 5-HT2A receptors; assay: Functional activity, FLIPR calcium assay, CHO cells expressing human 5-HT2A; type: cell-based; set-up: expressed in transfected cells; host or cells: CHO cells; conditions: for EC50: FLIPR, CHO cells, Fluo-3-AM, read-out: h5-HT2A EC50; for h5-HT2A Relative Efficacy (%): maximum fluorescent signal relative to 10 μM 5-HT (defined as 100%)
Protocol: (§3) The functional activity of compounds of formula (I) was assayed using a Fluorimetric Imaging Plate reader (FLIPR). CHO cells expressing the human 5-HT2C or human 5-HT2A receptors were counted and plated into standard 96 well microtitre plates on the day before testing to give a confluent monolayer. The cells were then dye loaded with the calcium sensitive dye, Fluo-3-AM. Unincorporated dye was removed using an automated cell washer to leave a total volume of 100 μL/well of assay buffer (Hanks balanced salt solution containing 20 mM Hepes and 2.5 mM probenecid). The drug (dissolved in 50 μL of the assay buffer) was added at a rate of 70 μL/sec to each well of the FLIPR 96 well plate during fluorescence measurements. The measurements were taken at 1 sec intervals and the maximum fluorescent signal was measured (approx 10-15 secs after drug addition) and compared with the response produced by 10 μM 5-HT (defined as 100%) to which it was expressed as a percentage response (relative efficacy). Dose response curves were constructed using Graphpad Prism (Graph Software Inc.).

food deprived animals = assay: Regulation of feeding behaviour: food consumption in food deprived animals; type: in vivo; conditions: 2 hours after a dose of 10 mg/kg s.c.
Protocol: 4. Regulation of Feeding Behaviour
The in vivo activity of compounds of formula (I) on feeding behaviour was assayed by measuring food consumption in food deprived animals.
Test compounds were assessed following acute administration. Each study utilised a between-subjects design (typically n=8) and compared the effects of doses of the test agent to those of vehicle and a positive control.
The anorectic drug d-fenfluramine normally serves as a positive control. The route of drug administration, drug volume and injection-test-interval are dependent upon the compounds used. A palatable wet mash, made by adding powdered lab chow and water in a ratio of 1:2 and mixing to a smooth consistency, was presented in 120 ML glass jars for 60 minutes each day. Intake was measured by weighing before and after each session. Care was taken to collect all spillage. Animals were allowed to habituate to the wet mash meal for 10 days. After drug administration, animals were allowed to consume the wet mash. Food consumption was assayed at pre-determined time points (typically 1, 2 and 4 hours after administration). Food intake data were subjected to one-way analysis of variance (ANOVA) with drug as a between-subjects factor. […] All statistical analyses were performed using Statistica Software, Version 5.0 (Statsoft Inc.) and Microsoft Excel 7.0 (Microsoft Corp.).

5-HT2c receptors [4] = biological target: T2, 5-HT2c receptors; assay: Functional activity, FLIPR calcium assay, CHO cells expressing human 5-HT2C; type: cell-based; set-up: expressed in transfected cells; host or cells: CHO cells; conditions: for EC50: FLIPR, CHO cells, Fluo-3-AM, read-out: h5-HT2C EC50; for h5-HT2C Relative Efficacy (%): maximum fluorescent signal relative to 10 μM 5-HT (defined as 100%)
Protocol: as §3

T3 sequence (P28223 whole entry): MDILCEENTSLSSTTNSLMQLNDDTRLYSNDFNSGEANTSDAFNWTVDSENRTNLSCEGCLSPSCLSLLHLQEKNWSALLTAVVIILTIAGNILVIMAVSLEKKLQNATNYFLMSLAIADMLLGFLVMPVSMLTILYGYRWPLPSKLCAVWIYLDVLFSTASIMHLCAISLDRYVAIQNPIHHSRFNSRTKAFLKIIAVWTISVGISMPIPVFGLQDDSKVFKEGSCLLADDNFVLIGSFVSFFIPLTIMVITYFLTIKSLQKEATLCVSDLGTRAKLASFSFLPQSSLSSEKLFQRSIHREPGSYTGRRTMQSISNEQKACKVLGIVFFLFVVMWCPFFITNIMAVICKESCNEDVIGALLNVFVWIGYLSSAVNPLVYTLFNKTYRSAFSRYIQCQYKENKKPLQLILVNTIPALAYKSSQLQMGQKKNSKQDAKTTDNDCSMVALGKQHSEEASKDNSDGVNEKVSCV
T1 sequence (P41595 whole entry): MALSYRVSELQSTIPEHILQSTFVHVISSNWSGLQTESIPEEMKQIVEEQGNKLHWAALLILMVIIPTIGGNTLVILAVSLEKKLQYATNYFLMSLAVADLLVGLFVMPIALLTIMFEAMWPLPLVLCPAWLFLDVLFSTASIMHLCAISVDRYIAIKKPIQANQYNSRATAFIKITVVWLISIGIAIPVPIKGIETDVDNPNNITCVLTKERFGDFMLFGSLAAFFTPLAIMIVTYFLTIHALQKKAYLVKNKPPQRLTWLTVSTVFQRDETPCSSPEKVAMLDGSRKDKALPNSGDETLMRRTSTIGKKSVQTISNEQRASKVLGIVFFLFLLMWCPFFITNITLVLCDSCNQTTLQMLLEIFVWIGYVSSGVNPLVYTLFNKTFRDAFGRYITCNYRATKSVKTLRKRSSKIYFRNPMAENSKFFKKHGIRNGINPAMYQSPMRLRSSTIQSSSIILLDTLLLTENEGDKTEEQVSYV

COc1nccc2c1ccc1ccn(C[C@H](C)N)c12 (as salt: fumarate)
melting point: 180 to 182 °C

C[C@H](N)Cn1ccc2ccc3cnccc3c21 (as salt: fumarate) [Example 4, (S)-1-(1H-Pyrrolo[2,3-f]isoquinolin-1-yl)-2-propylamine fumarate]
melting point: 165 °C

C[C@H](N)Cn1ccc2cc(Cl)c3ncccc3c21 (as salt: fumarate) [Example 5, (S)-1-(5-Chloro-1H-pyrrolo[2,3-f]-quinolin-1-yl)-2-propylamine fumarate]
melting point: 228 to 229 °C

C[C@H](N)Cn1ccc2ccc3ccncc3c21 (as salt: fumarate) [Example 7, (S)-1-(1H-Pyrrolo[3,2-h]isoquinolin-1-yl)-2-propylamine fumarate]
melting point: 153 to 154 °C

C[C@H](N)Cn1ccc2ccc3cccnc3c21 (as salt: fumarate) [Example 8, (S)-1-(1H-Pyrrolo[3,2-h]quinolin-1-yl)-2-propylamine hemifumarate]
melting point: 212 to 214 °C

C[C@H](N)Cn1ccc2ccc3ncccc3c21 (as salt: hydrochloride) [Example 1, (S)-1-(1H-Pyrrolo[2,3-f]quinolin-1-yl)-2-propylamine]
melting point: 222 to 224 °C

C[C@@H](N)Cn1ccc2ccc3ncccc3c21 (as salt: hydrochloride) [Example 2, (R)-1-(1H-Pyrrolo[2,3-f]quinolin-1-yl)-2-propylamine]
melting point: 223 to 225 °C

CC(N)Cn1ccc2ccc3ncccc3c21 (racemic) [Example 3, (RS)-1-(1H-Pyrrolo[2,3-f]quinolin-1-yl)-2-propylamine hydrochloride]
Ki (human 5-HT2B receptors): 9 nM
Ki (5-HT2c receptors [1]): 24 nM
Ki (5-HT2A receptors [2]): 40 nM

C[C@H](N)Cn1ccc2ccc3ncccc3c21 [Example 1, (S)-1-(1H-Pyrrolo[2,3-f]quinolin-1-yl)-2-propylamine]
Ki (human 5-HT2B receptors): 12 nM
EC50 (5-HT2A receptors [3]): 360 nM
h5-HT2A Relative Efficacy (%) (5-HT2A receptors [3]): 100%
Ki (5-HT2c receptors [1]): 9 nM
Ki (5-HT2A receptors [2]): 45 nM
hypophagia (food consumption) (food deprived animals): significant hypophagia
EC50 (5-HT2c receptors [4]): 12 nM
h5-HT2C Relative Efficacy (%) (5-HT2c receptors [4]): 93%

C[C@@H](N)Cn1ccc2ccc3ncccc3c21 [Example 2, (R)-1-(1H-Pyrrolo[2,3-f]quinolin-1-yl)-2-propylamine]
Ki (human 5-HT2B receptors): 5 nM
EC50 (5-HT2A receptors [3]): 87 nM
h5-HT2A Relative Efficacy (%) (5-HT2A receptors [3]): 96%
Ki (5-HT2c receptors [1]): 22 nM
Ki (5-HT2A receptors [2]): 37 nM
hypophagia (food consumption) (food deprived animals): significant hypophagia
EC50 (5-HT2c receptors [4]): 7 nM
h5-HT2C Relative Efficacy (%) (5-HT2c receptors [4]): 85%

C[C@H](N)Cn1ccc2ccc3cnccc3c21 [Example 4, (S)-1-(1H-Pyrrolo[2,3-f]isoquinolin-1-yl)-2-propylamine fumarate]
Ki (human 5-HT2B receptors): 84 nM
EC50 (5-HT2A receptors [3]): 870 nM
h5-HT2A Relative Efficacy (%) (5-HT2A receptors [3]): 54%
Ki (5-HT2c receptors [1]): 156 nM
Ki (5-HT2A receptors [2]): 173 nM
EC50 (5-HT2c receptors [4]): 142 nM
h5-HT2C Relative Efficacy (%) (5-HT2c receptors [4]): 89%

C[C@H](N)Cn1ccc2cc(Cl)c3ncccc3c21 [Example 5, (S)-1-(5-Chloro-1H-pyrrolo[2,3-f]-quinolin-1-yl)-2-propylamine fumarate]
EC50 (5-HT2A receptors [3]): 52 nM
h5-HT2A Relative Efficacy (%) (5-HT2A receptors [3]): 80%
EC50 (5-HT2c receptors [4]): 5 nM
h5-HT2C Relative Efficacy (%) (5-HT2c receptors [4]): 86%

C[C@H](N)Cn1ccc2ccc3ccncc3c21 [Example 7, (S)-1-(1H-Pyrrolo[3,2-h]isoquinolin-1-yl)-2-propylamine fumarate]
EC50 (5-HT2A receptors [3]): 636 nM
h5-HT2A Relative Efficacy (%) (5-HT2A receptors [3]): 61%
EC50 (5-HT2c receptors [4]): 36 nM
h5-HT2C Relative Efficacy (%) (5-HT2c receptors [4]): 83%

C[C@H](N)Cn1ccc2ccc3cccnc3c21 [Example 8, (S)-1-(1H-Pyrrolo[3,2-h]quinolin-1-yl)-2-propylamine hemifumarate]
Ki (human 5-HT2B receptors): 88 nM
EC50 (5-HT2A receptors [3]): 1070 nM
h5-HT2A Relative Efficacy (%) (5-HT2A receptors [3]): 31%
Ki (5-HT2c receptors [1]): 45 nM
Ki (5-HT2A receptors [2]): 90 nM
EC50 (5-HT2c receptors [4]): 99 nM
h5-HT2C Relative Efficacy (%) (5-HT2c receptors [4]): 24%

C[C@@H](Cn1ccc2ccc3ncccc3c21)NCc1ccc2c(c1)OCO2 [Example 9, (S)-[1-(1H-Pyrrolo[2,3-f]quinolin-1-yl)-2-propyl]-(3,4-methylenedioxybenzyl)amine bis-fumarate]
EC50 (5-HT2A receptors [3]): 1300 nM
h5-HT2A Relative Efficacy (%) (5-HT2A receptors [3]): 65%
EC50 (5-HT2c receptors [4]): 85 nM
h5-HT2C Relative Efficacy (%) (5-HT2c receptors [4]): 90%
